Where two headings read alike, the source gives them in different places.
System: NCI 60 cancer cell lines
Assay: NCI anticancer screening over a panel of 60 cancer cells, single concentration 10 µM
Type: cell-based, human
Conditions: Homo sapiens, read-out: % Growth Inhibition (GI %)
Procedure: Ten final compounds 4a–j and five intermediates 2a–e have been selected by the National Cancer Institute (NCI) for anticancer screening over a panel of 60 cancer cells that cover a variety of histological tissues, including the central nervous system, leukemia, lung, colon, kidney, ovary, breast, and prostate, using the protocol established by the National Cancer Institute (NCI). In a primary screening, each compound was screened at a concentration of 10 µM.
Compounds 2a-e and 4a-j were selected by the National Cancer Institute (NCI) according to the protocol of the Compound Evaluation Branch of the National Cancer Institute, Bethesda, USA, for in vitro anticancer screening which refers in turn to apoptotic activity. The methodology of the NCI anticancer screening has been described in detail elsewhere (http://www.dtp.nci.nih.gov).

[1] = 786-0, Renal cancer 786-0, 10 μM
[2] = A549, Non-small cell lung cancer A549/ATCC, 10 μM
[3] = BT-549, Breast cancer BT-549, 10 μM
[4] = CAKI-1, Renal cancer CAKI-1, 10 μM
[5] = CCRF-CEM, Leukemia CCRF-CEM, 10 μM
[6] = COLO 205, Colon cancer COLO 205, 10 μM
[7] = DU-145, Prostate cancer DU-145, 10 μM
[8] = HCC 2998, Colon cancer HCC-2998, 10 μM
[9] = HCT-15, Colon cancer HCT-15, 10 μM
[10] = HCT-116, Colon cancer HCT-116, 10 μM
[11] = HL-60, Leukemia HL-60(TB), 10 μM
[12] = HOP-62, Non-small cell lung cancer HOP-62, 10 μM
[13] = HOP-92, Non-small cell lung cancer HOP-92, 10 μM
[14] = HT-29, Colon cancer HT29, 10 μM
[15] = Hs-578T, Breast cancer HS 578T, 10 μM
[16] = IGROV-1, Ovarian cancer IGROV1, 10 μM
[17] = LOX IMVI, Melanoma LOX IMVI, 10 μM
[18] = MCF7, Breast cancer MCF7, 10 μM
[19] = MDA-MB-231, Breast cancer MDA-MB-231/ATCC, 10 μM
[20] = MDA-MB-435, Melanoma MDA-MB-435, 10 μM
[21] = MDA-MB-468, Breast cancer MDA-MB-468, 10 μM
[22] = NCI-H23, Non-small cell lung cancer NCI-H23, 10 μM
[23] = NCI-H226, Non-small cell lung cancer NCI-H226, 10 μM
[24] = NCI-H322M, Non-small cell lung cancer NCI-H322M, 10 μM
[25] = NCI-H460, Non-small cell lung cancer NCI-H460, 10 μM
[26] = NCI-H522, Non-small cell lung cancer NCI-H522, 10 μM
[27] = NCI/ADR-RES, Ovarian cancer NCI/ADR-RES, 10 μM
[28] = OVCAR-4, Ovarian cancer OVCAR-4, 10 μM
[29] = OVCAR-5, Ovarian cancer OVCAR-5, 10 μM
[30] = OVCAR-8, Ovarian cancer OVCAR-8, 10 μM
[31] = RPMI-8226, Leukemia RPMI-8226, 10 μM
[32] = RXF 393, Renal cancer RXF 393, 10 μM
[33] = SF-268, CNS Cancer SF-268, 10 μM
[34] = SF-295, CNS Cancer SF-295, 10 μM
[35] = SF-539, CNS Cancer SF-539, 10 μM
[36] = SK-MEL-2, Melanoma SK-MEL-2, 10 μM
[37] = SK-MEL-5, Melanoma SK-MEL-5, 10 μM
[38] = SK-MEL-28, Melanoma SK-MEL-28, 10 μM
[39] = SK-OV-3, Ovarian cancer SK-OV-3, 10 μM
[40] = SN12C, Renal cancer SN12C, 10 μM
[41] = SNB-19, CNS Cancer SNB-19, 10 μM
[42] = SNB-75, CNS Cancer SNB-75, 10 μM
[43] = SW-620, Colon cancer SW-620, 10 μM
[44] = T47D, Breast cancer T-47D, 10 μM
[45] = TK-10, Renal cancer TK-10, 10 μM
[46] = UACC-62, Melanoma UACC-62, 10 μM
[47] = UACC-257, Melanoma UACC-257, 10 μM
[48] = UO-31, Renal cancer UO-31, 10 μM

Measured: inhibition at 10 µM

COc1ccc2[nH]c(=O)cc(-n3ncc(/C(C)=N/Nc4ccc(C(=O)O)cc4)c3C)c2c1 [Compound 4h, (E)-4-(2-(1-(1-(6-methoxy-2-oxo-1,2-dihydroquinolin-4-yl)-5-methyl-1H-pyrazol-4-yl)ethylidene)hydrazineyl)benzoic acid]
< 5%: [1] | A498, Renal cancer A498, 10 μM | [2] | ACHN, Renal cancer ACHN, 10 μM | [3] | [4] | [5] | [6] | [7] | EKVX, Non-small cell lung cancer EKVX, 10 μM | [8] | [9] | [10] | [11] | [12] | [14] | [15] | [16] | K562, Leukemia K-562, 10 μM | KM12, Colon cancer KM12, 10 μM | [17] | Leukemia SR, 10 μM | [20] | [21] | MOLT-4, Leukemia MOLT-4, 10 μM | Melanoma M14, 10 μM | Melanoma MALM-3M, 10 μM | [22] | [23] | [24] | [25] | [26] | [27] | OVCAR-3, Ovarian cancer OVCAR-3, 10 μM | [28] | [29] | [30] | Prostate cancer PC-3, 10 μM | [31] | [32] | [33] | [34] | [35] | [36] | [37] | [38] | [39] | [40] | [41] | [42] | [43] | [44] | [45] | U-251, CNS Cancer U251, 10 μM | [46] | [47]
38.5%: [13]
5.52%: [18]
4.98%: [19]
22.6%: [48]

C/C(=N\Nc1ccc(S(N)(=O)=O)cc1)c1cnn(-c2cc(=O)[nH]c3ccccc23)c1C [Compound 4a, (E)-4-(2-(1-(5-methyl-1-(2-oxo-1,2-dihydroquinolin-4-yl)-1H-pyrazol-4-yl)ethylidene) hydrazineyl)benzenesulfonamide]
12%: [36]
22.6%: [48]
12.7%: Leukemia SR, 10 μM
7.49%: [12]
24.8%: [21]
18.9%: [26]
6.43%: [38]
11.6%: [1]
11.4%: [28]
10.1%: [42]
14%: [33]
8.96%: [35]
8.54%: [46]
8.23%: [37]
7.82%: [5]
14.7%: [23]
24.7%: [44]
17.7%: [19]
19.4%: [15]
5.93%: [34]
13.9%: [18]
11.2%: [31]
7.57%: U-251, CNS Cancer U251, 10 μM
5.22%: [17]
6.78%: [24]
9.13%: [41]
< 5%: [2] | ACHN, Renal cancer ACHN, 10 μM | [6] | [7] | [8] | [9] | [10] | [11] | [13] | [14] | [16] | K562, Leukemia K-562, 10 μM | KM12, Colon cancer KM12, 10 μM | [20] | MOLT-4, Leukemia MOLT-4, 10 μM | [22] | [25] | [27] | [29] | [30] | [32] | [39] | [40] | [43] | [45] | [47]
5.51%: [4]
30.1%: Melanoma MALM-3M, 10 μM
34.3%: [3]
8.46%: Prostate cancer PC-3, 10 μM
